The target in test [1] is T1, HiBit-KRAS^G12C (Homo sapiens, UniProt P01116, G12C). The test can be described thus: HiBit degradation assay in MiaPaCa-2 HiBit-KRas^G12C cells. The settings on record: 24 hours; for Dmax: maximum degradation; for DC50: read-out: KRas^G12C-HiBiT (MiaPaCa; 0.5% DMSO) IC50. Format: cell-based. An outline of the steps: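 DC50 and Dmax come from 4-parameter fits of DMSO-normalized HiBit luminescence after 24 hours' exposure at 37° C to 10 μM–20 nM compound in 0.1% or 0.5% DMSO. Cells: MiaPaCa-2 carrying one endogenously HiBit-tagged KRAS^G12C allele; concentrations causing ≥50% […] viability loss (alamar blue) excluded.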
T1 sequence (P01116 1-186 isoform P01116-2 G12C limits assumed): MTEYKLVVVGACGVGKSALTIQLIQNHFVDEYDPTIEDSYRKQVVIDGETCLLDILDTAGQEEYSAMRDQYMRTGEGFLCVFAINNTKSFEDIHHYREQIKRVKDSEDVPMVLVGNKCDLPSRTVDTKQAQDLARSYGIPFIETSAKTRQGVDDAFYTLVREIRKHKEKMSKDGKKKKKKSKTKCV
A general note: With HiBiT, luminescence reflects the tagged protein that the partner subunit can reach.

Test [2] has as its target T1, HiBit-KRAS^G12C. The test can be described thus: HiBit degradation assay in SW1573 HiBit-KRas^G12C cells. Format: cell-based. Also on record: expressed in transfected cells; host or cells: SW1573 (clone E6), modified pcDNA3.1 vector, TK promoter. The settings on record: 24 hours. The procedure, abridged:
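HiBit-KRAS G12C degradation was measured after a 24 h compound exposure (titrated 10 μM–20 nM) in engineered SW1573 cells. Lytic HiBit luminescence, expressed relative to DMSO controls, yielded DC50 and Dmax from 4-parameter fits. Concentrations causing ≥50% loss in alamar blue viability were omitted as cytotoxic.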

Where [3] appears, read: SW1573 HiBit-KRas^G12C, 0.1% DMSO, read-out: KRas^G12C-HIBit (SW1573; 0.1% DMSO) DC50*.
[4] abbreviates: MIA PaCa-2, MiaPaCa-2 HiBit-KRas^G12C cells, 0.5% DMSO, read-out: KRas^G12C-HiBiT (MiaPaCa; 0.5% DMSO) DMax.
[5] abbreviates: MiaPaCa-2 HiBit-KRas^G12C cells, 0.5% DMSO.
Where [6] appears, read: SW1573, SW1573 HiBit-KRas^G12C, 0.5% DMSO, read-out: KRas^G12C-HiBiT (SW1573; 0.5% DMSO) Dmax**.
Where [7] appears, read: read-out: KRas^G12C-HiBiT (SW1573; 0.5% DMSO) IC50***, SW1573 HiBit-KRas^G12C, 0.5% DMSO.
Setting [8] is: MIA PaCa-2, MiaPaCa-2 HiBit-KRas^G12C cells, 0.1% DMSO, read-out: KRas^G12C-HiBiT (MiaPaCa; 0.1% DMSO) DMax.
Setting [9] is: SW1573, SW1573 HiBit-KRas^G12C, 0.1% DMSO, read-out: KRas^G12C-HiBit (SW1573; 0.1% DMSO) Dmax**.

Where only a bound is given, the exact number is not on record here.

In the case of `C=CC(=O)N1CCN(c2nc(O[C@H](C)CN3CC(N4CCN(CC(=O)N[C@H](C(=O)N5C[C@H](O)C[C@H]5C(=O)N[C@@H](C)c5ccc(-c6scnc6C)cc5)C(C)(C)C)CC4)C3)nc3c(F)c(-c4cc(O)cc5ccccc45)c(Cl)cc23)CC1` [Compound 62, (2S,4R)-1-[(2S)-2-[2-(4-{1-[(2R)-2-{[6-chloro-8-fluoro-7-(3-hydroxynaphthalen-1-yl)-4-[4-(prop-2-enoyl)piperazin-1-yl]quinazolin-2-yl]oxy}propyl]azetidin-3-yl}piperazin-1-yl)acetamido]-3,3-dimethylbutanoyl]-4-hydroxy-N-[(1S)-1-[4-(4-methyl-1,3-thiazol-5-yl)phenyl]ethyl]pyrrolidine-2-carboxamide], the Dmax on HiBit-KRAS^G12C [1] (MIA PaCa-2, read-out: KRas^G12C-HiBiT (MiaPaCa; 0.1% DMSO) DMax, MiaPaCa-2 HiBit-KRas^G12C cells, 0.1% DMSO) was under 35%; at HiBit-KRAS^G12C [2] (SW1573, read-out: KRas^G12C-HiBit (SW1573; 0.1% DMSO) Dmax**, SW1573 HiBit-KRas^G12C, 0.1% DMSO), 35 to 70%. At HiBit-KRAS^G12C [2] (setting [3]), the DC50 was 100 to 1000 nM.

Take `Cc1ncsc1-c1ccc([C@H](C)NC(=O)[C@@H]2C[C@@H](O)CN2C(=O)[C@@H](NC(=O)COCC2CCN(CCOc3nc(N4CCN(C(=O)/C=C/CN5CCOCC5)[C@@H](CC#N)C4)c4cc(Cl)c(-c5cc(O)cc6ccccc56)c(F)c4n3)CC2)C(C)(C)C)cc1` [Compound 164, (2S,4R)-1-[(2S)-2-[2-({1-[2-({6-chloro-4-[(3S)-3-(cyanomethyl)-4-[(2E)-4-(morpholin-4-yl)but-2-enoyl]piperazin-1-yl]-8-fluoro-7-(3-hydroxynaphthalen-1-yl)quinazolin-2-yl}oxy)ethyl]piperidin-4-yl}methoxy)acetamido]-3,3-dimethylbutanoyl]-4-hydroxy-N-[(1S)-1-[4-(4-methyl-1,3-thiazol-5-yl)phenyl]ethyl]pyrrolidine-2-carboxamide]: the Dmax on HiBit-KRAS^G12C [1] (setting [4]) and at HiBit-KRAS^G12C [2] (setting [6]) was 35 to 70% in each case. The DC50 at HiBit-KRAS^G12C [1] (setting [5]) was over 1000 nM; at HiBit-KRAS^G12C [2] (setting [7]), 100 to 1000 nM.

Consider `C=C(F)C(=O)N1CCN(c2nc(OCCN3CCC(F)(COc4cc([C@@H](C(=O)N5C[C@H](O)C[C@H]5C(=O)N[C@@H](C)c5ccc(-c6ccnn6C)cc5)C(C)C)on4)CC3)nc3c(F)c(-c4cc(O)cc5ccccc45)c(Cl)cc23)C[C@@H]1CC#N` (atropisomer, axis not shown) [Compound 118, (2S,4R)-1-[(2S)-2-[3-({1-[2-({6-chloro-4-[(3S)-3-(cyanomethyl)-4-(2-fluoroprop-2-enoyl)piperazin-1-yl]-8-fluoro-7-(3-hydroxynaphthalen-1-yl)quinazolin-2-yl}oxy)ethyl]-4-fluoropiperidin-4-yl}methoxy)-1,2-oxazol-5-yl]-3-methylbutanoyl]-4-hydroxy-N-[(1S)-1-[4-(1-methyl-1H-pyrazol-5-yl)phenyl]ethyl]pyrrolidine-2-carboxamide], for which the DC50 at HiBit-KRAS^G12C [1] (setting [5]) is over 1000 nM; at HiBit-KRAS^G12C [2] (setting [7]) it was 100 to 1000 nM.

`C=CC(=O)N1CCN(c2nc(OCCN3CCC(COC4(C(=O)N[C@H](C(=O)N5C[C@H](O)C[C@H]5C(=O)N[C@@H](C)c5ccc(-c6scnc6C)cc5)C(C)(C)C)CC4)CC3)nc3c(F)c(-c4cc(O)cc5ccccc45)c(Cl)cc23)C[C@@H]1CC#N` [Compound 96, (2S,4R)-1-[(2S)-2-{[1-({1-[2-({6-chloro-4-[(3S)-3-(cyanomethyl)-4-(prop-2-enoyl)piperazin-1-yl]-8-fluoro-7-(3-hydroxynaphthalen-1-yl)quinazolin-2-yl}oxy)ethyl]piperidin-4-yl}methoxy)cyclopropyl] formamido}-3,3-dimethylbutanoyl]-4-hydroxy-N-[(1S)-1-[4-(4-methyl-1,3-thiazol-5-yl)phenyl]ethyl]pyrrolidine-2-carboxamide]: the Dmax on HiBit-KRAS^G12C [1] (setting [4]) and on HiBit-KRAS^G12C [2] (setting [6]) was over 70% in each case. Further, the figures for the DC50 at HiBit-KRAS^G12C [1] (setting [5]) and on HiBit-KRAS^G12C [2] (setting [7]) were 100 to 1000 nM and under 100 nM, respectively.

As for `C=CC(=O)N1CCN(c2nc(OCCN3CCC(CCOCC(=O)N[C@H](C(=O)N4C[C@H](O)C[C@H]4C(=O)N[C@@H](C)c4ccc(-c5scnc5C)cc4)C(C)(C)C)CC3)nc3c(F)c(-c4cc(O)cc5ccccc45)c(Cl)cc23)CC1` [Compound 64, (2S,4R)-1-[(2S)-2-(2-{2-[l-(2-{[6-chloro-8-fluoro-7-(3-hydroxynaphthalen-1-yl)-4-[4-(prop-2-enoyl)piperazin-1-yl]quinazolin-2-yl]oxy}ethyl)piperidin-4-yl]ethoxy}acetamido)-3,3-dimethylbutanoyl]-4-hydroxy-N-[(1S)-1-[4-(4-methyl-1,3-thiazol-5-yl)phenyl]ethyl]pyrrolidine-2-carboxamide], the Dmax on HiBit-KRAS^G12C [1] (setting [8]) is under 35%; on HiBit-KRAS^G12C [1] (setting [4]), 35 to 70%; at HiBit-KRAS^G12C [2] (setting [9]), 35 to 70%; at HiBit-KRAS^G12C [2] (setting [6]), 35 to 70%. Further, the DC50 at HiBit-KRAS^G12C [2] (setting [3]) fell in the range of 100 to 1000 nM.

`C=CC(=O)N1CCN(c2nc(O[C@H](C)CN3CCC(CCOCC(=O)N[C@H](C(=O)N4C[C@H](O)C[C@H]4C(=O)N[C@@H](C)c4ccc(-c5scnc5C)cc4)C(C)(C)C)CC3)nc3c(F)c(-c4cc(O)cc5ccccc45)c(Cl)cc23)CC1` [Compound 68, (2S,4R)-1-[(2S)-2-[2-(2-{1-[(2R)-2-{[6-chloro-8-fluoro-7-(3-hydroxynaphthalen-1-yl)-4-[4-(prop-2-enoyl)piperazin-1-yl]quinazolin-2-yl]oxy}propyl]piperidin-4-yl}ethoxy)acetamido]-3,3-dimethylbutanoyl]-4-hydroxy-N-[(1S)-1-[4-(4-methyl-1,3-thiazol-5-yl)phenyl]ethyl]pyrrolidine-2-carboxamide]: the Dmax on HiBit-KRAS^G12C [1] (setting [8]) was under 35%; on HiBit-KRAS^G12C [1] (setting [4]), 35 to 70%; on HiBit-KRAS^G12C [2] (setting [9]) it was 35 to 70%; at HiBit-KRAS^G12C [2] (setting [6]), 35 to 70%. Further, at HiBit-KRAS^G12C [2] (setting [3]), the DC50 was in the range of 100 to 1000 nM.

Consider `C=CC(=O)N1CCN(c2nc(OCCN3CCC(C)(COCC(=O)N[C@H](C(=O)N4C[C@H](O)C[C@H]4C(=O)N[C@@H](C)c4ccc(-c5scnc5C)cc4)C(C)(C)C)CC3)nc3c(F)c(-c4cc(O)cc5ccccc45)c(Cl)cc23)C[C@@H]1CC#N` [Compound 149, (2S,4R)-1-[(2S)-2-[2-({1-[2-({6-chloro-4-[(3S)-3-(cyanomethyl)-4-(prop-2-enoyl)piperazin-1-yl]-8-fluoro-7-(3-hydroxynaphthalen-1-yl)quinazolin-2-yl}oxy)ethyl]-4-methylpiperidin-4-yl}methoxy)acetamido]-3,3-dimethylbutanoyl]-4-hydroxy-N-[(1S)-1-[4-(4-methyl-1,3-thiazol-5-yl)phenyl]ethyl]pyrrolidine-2-carboxamide], for which the Dmax on HiBit-KRAS^G12C [1] (setting [4]) and on HiBit-KRAS^G12C [2] (setting [6]) was over 70% in each case. For the same molecule, the DC50 at HiBit-KRAS^G12C [1] (setting [5]) and at HiBit-KRAS^G12C [2] (setting [7]) was 100 to 1000 nM in each case.

`C=C(F)C(=O)N1CCN(c2nc(OCCN3CCC(COCC(=O)N[C@H](C(=O)N4C[C@H](O)C[C@H]4C(=O)N[C@@H](C)c4ccc(-c5ccnn5C)cc4)C(C)(C)C)CC3)nc3c(F)c(-c4cc(O)cc5ccccc45)c(Cl)cc23)C[C@@H]1CC#N` (atropisomer, axis not shown) [Compound 129, (2S,4R)-1-[(2S)-2-[2-({1-[2-({6-chloro-4-[(3S)-3-(cyanomethyl)-4-(2-fluoroprop-2-enoyl)piperazin-1-yl]-8-fluoro-7-(3-hydroxynaphthalen-1-yl)quinazolin-2-yl}oxy)ethyl]piperidin-4-yl}methoxy)acetamido]-3,3-dimethylbutanoyl]-4-hydroxy-N-[(1S)-1-[4-(1-methyl-1H-pyrazol-5-yl)phenyl]ethyl]pyrrolidine-2-carboxamide]: the Dmax at HiBit-KRAS^G12C [1] (setting [4]) and on HiBit-KRAS^G12C [2] (setting [6]) was over 70% throughout. For the same molecule, the DC50 at HiBit-KRAS^G12C [1] (setting [5]) and on HiBit-KRAS^G12C [2] (setting [7]) was 100 to 1000 nM throughout.
